Data: ChEMBL document CHEMBL3600289, “A double bond-conjugated dimethylnitrobenzene-type photolabile nitric oxide donor with improved two-photon cross section” (Bioorg Med Chem Lett, 2015)
The source made the active and inactive calls. The rule behind the calls is not given here.

Legend:
[1] = Induction of nitric oxide release in water/DMSO mixture irradiated with 100W Hg lamp at 450 to 480 nm by […] complex-based ESR spin trapping method; type: physicochemical; conditions: buffer, 0.48 µM
HCT-116 [2] = experiment: Induction of nitric oxide release in human HCT116 cells at 25 uM preincubated for 1 hr followed by irradiation with 950 nm pulse laser for 1 sec by confocal microscopic analysis; type: functional, cell-based
HCT-116 [3] = experiment: Induction of nitric oxide release in human HCT116 cells at 25 uM incubated for 1 hr by confocal microscopic analysis in absence of irradiation; type: functional, cell-based
[4] = Induction of nitric oxide release in water/DMSO mixture irradiated with 100W Hg lamp at 330 to 380 nm at 1 mM by […] complex-based ESR spin trapping method; type: physicochemical; conditions: buffer, 0.38 µM
[5] = Induction of nitric oxide release in water/DMSO mixture irradiated with 100W Hg lamp at 450 to 480 nm at 1 mM by […] complex-based ESR spin trapping method; type: physicochemical; conditions: buffer, 0.48 µM

Row | SMILES | Activity [1] | Activity (HCT-116 [2]) | Activity (HCT-116 [3]) | Activity [4] | Activity [5]
1 | Cc1cc(/C=C/c2ccc(C(=O)Nc3ccc(-c4c5ccc(=O)cc-5oc5cc(O)ccc45)c(C(=O)O)c3)cc2)cc(C)c1[N+](=O)[O-] | Not Active |  |  |  | 
2 | Cc1cc(/C=C/c2ccc(/C=C/c3ccc(-c4c5ccc(=O)cc-5oc5cc(O)ccc45)c(C(=O)O)c3)cc2)cc(C)c1[N+](=O)[O-] |  | Active | inactive | Active | Active
